The test system of test [1] is NCI-H358 cells (K-Ras G12C). Briefly: Potency assay: pERK in NCI-H358 cells. In kind it is cell-based, human. The note with it: Homo sapiens, NCI-H358; H358 KRAS G12C; read-out: pERK EC50. In outline: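 Inhibition of cellular pERK after a 4 h treatment, detected by AlphaLISA or In-Cell Western. IC50 from a four-parameter concentration-response fit.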
Another test has as its system NCI-H358 (K-Ras G12C). Briefly: CellTiter-Glo cell viability assay, NCI-H358. The note with it: Homo sapiens, NCI-H358, 120 h, NCI-H358, 5-day treatment; class symbols; read-out: Additional H358 Cell Viability assay data (K-Ras G12C, IC50). In kind it is cell-based, human. In outline:
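Compounds were dispensed directly onto K-Ras mutant cells and incubated until day 5, then plates were equilibrated to room temperature for about 30 minutes before CellTiter-Glo luminescence. Signals were normalized as (sample/average DMSO)*100 and fitted by four-parameter logistic fit.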

On to `C=CC(=O)N1CC[C@H](C(=O)N(C)[C@H](C(=O)N[C@H]2Cc3cc(O)cc(c3)-c3ccc4c(c3)c(c(C3=C(COC)CCCC3)n4CC)CC(C)(C)COC(=O)[C@@H]3CCCN(N3)C2=O)C(C)C)C1` [Example A64], for which, in test [1], the concentration for a half-maximal effect (EC50) was below 5000 nM. Besides, the IC50 with NCI-H358 (K-Ras G12C) lay in the range of 10 to 100 nM.

`C=CC(=O)N1CC[C@H](C(=O)N(C)[C@H](C(=O)N[C@H]2Cc3cc(O)cc(c3)-c3ccc4c(c3)c(c([C@@H]3CC=CN=C3COC)n4CC)CC(C)(C)COC(=O)[C@@H]3CCCN(N3)C2=O)C(C)C)C1` [Example A65]: in test [1], the EC50 is below 5000 nM. The IC50 in the test with NCI-H358 (K-Ras G12C) fell in the range of 100 to 1000 nM.

Take `C=CC(=O)N1CC[C@H](C(=O)N(C)[C@H](C(=O)N[C@H]2Cc3cc(O)cc(c3)-c3ccc4c(c3)c(c(-c3cccnc3COC)n4C)CC(C)(C)COC(=O)[C@@H]3CCCN(N3)C2=O)C(C)C)C1` [Example A66]: the EC50 in test [1] is below 5000 nM. Also, the IC50 in the test with NCI-H358 (K-Ras G12C) lay in the range of 10 to 100 nM.

For `CCn1c(-c2cccnc2COC)c2c3cc(ccc31)-c1cc(O)cc(c1)C[C@H](NC(=O)[C@H](C(C)C)N(C)C(=O)c1ccc(NC(=O)/C=C/CN(C)C)cn1)C(=O)N1CCC[C@H](N1)C(=O)OCC(C)(C)C2` [Example A67, (2E)-4-(dimethylamino)-N-(6-{[(1S)-1-{[(8S,14S)-22-ethyl-4-hydroxy-21-[2-(methoxymethyl)pyridin-3-yl]-18,18-dimethyl-9,15-dioxo-16-oxa-10,22,28-triazapentacyclo[18.5.2.1^2,^6.1^10,^14.0^23,^27]nonacosa-1(26),2,4,6(29),20,23(27),24-heptaen-8-yl]carbamoyl}-2-methylpropyl](methyl)carbamoyl}pyridin-3-yl)but-2-enamide], the half-maximal effective concentration (EC50) in test [1] was below 5000 nM. Also, the IC50 with NCI-H358 (K-Ras G12C) fell in the range of 100 to 1000 nM.

Regarding `C=CC(=O)N1CC[C@@]2(CCN([C@H](C(=O)N[C@H]3Cc4cc(O)cc(c4)-c4ccc5c(c4)c(c(-c4ccccc4CCOC)n5CC)CC(C)(C)COC(=O)[C@@H]4CCCN(N4)C3=O)C(C)C)C2=O)C1` [Example A68], the EC50 in test [1] was below 5000 nM. In addition, the IC50 in the test on NCI-H358 (K-Ras G12C) lay within 100 to 1000 nM.

Consider `C=CS(=O)(=O)N1CC[C@H](C(=O)N(C)[C@H](C(=O)N[C@H]2Cc3cc(O)cc(c3)-c3ccc4c(c3)c(c(-c3cccnc3COC)n4CC)CC(C)(C)COC(=O)[C@@H]3CCCN(N3)C2=O)C(C)C)C1` [Example A69], for which the EC50 in test [1] was below 5000 nM. Further, the 50% inhibitory concentration (IC50) in the test with NCI-H358 (K-Ras G12C) is 10 to 100 nM.

For `C=CC(=O)N1CC(C(=O)N(C)[C@H](C(=O)N[C@H]2Cc3cc(O)cc(c3)-c3ccc4c(c3)c(c(-c3cccnc3COC)n4CC)CC(C)(C)COC(=O)[C@@H]3CCCN(N3)C2=O)C(C)C)C1` [Example A70], the EC50 in test [1] was below 5000 nM. In the test with NCI-H358 (K-Ras G12C), the IC50 was 10 to 100 nM.

With `CCn1c(-c2cccnc2COC)c2c3cc(ccc31)-c1cc(O)cc(c1)C[C@H](NC(=O)[C@H](C(C)C)N(C)C(=O)C1CN(C(=O)/C=C/CN(C)C)C1)C(=O)N1CCC[C@H](N1)C(=O)OCC(C)(C)C2` [Example A71, (2S)-2-(1-{1-[(2E)-4-(dimethylamino)but-2-enoyl]azetidin-3-yl}-N-methylformamido)-N-[(8S,14S)-22-ethyl-4-hydroxy-21-[2-(methoxymethyl)pyridin-3-yl]-18,18-dimethyl-9,15-dioxo-16-oxa-10,22,28-triazapentacyclo[18.5.2.1^2,^6.1^10,^14.0^23,^27]nonacosa-1(26),2,4,6(29),20,23(27),24-heptaen-8-yl]-3-methylbutanamide], the EC50 in test [1] was below 5000 nM. Moreover, the IC50 in the test on NCI-H358 (K-Ras G12C) was 100 to 1000 nM.

For `C=CC(=O)N1CC[C@H](C(=O)N(C)[C@H](C(=O)N[C@H]2Cc3cc(O)cc(c3)-c3ccc4c(c3)c(c(-c3cncc(CN(C)C)c3)n4CC)CC(C)(C)COC(=O)[C@@H]3CCCN(N3)C2=O)C(C)C)C1` [Example A73], the EC50 in test [1] is below 5000 nM. The IC50 in the test with NCI-H358 (K-Ras G12C) was 10 to 100 nM.

`C=CC(=O)N1CC[C@H](C(=O)N(C)[C@H](C(=O)N[C@H]2Cc3cc(O)cc(c3)-c3ccc4c(c3)c(c(-c3cnccc3C)n4CC)CC(C)(C)COC(=O)[C@@H]3CCCN(N3)C2=O)C(C)C)C1` [Example A77]: in test [1], the EC50 was below 5000 nM. The IC50 in the test on NCI-H358 (K-Ras G12C) lay in the range of 10 to 100 nM.

In the case of `CCn1c(-c2ccccc2COC)c2c3cc(ccc31)-c1cc(O)cc(c1)C[C@H](NC(=O)[C@H](C(C)C)N(C)C(=O)[C@H]1CCN(C(=O)/C=C/CN(C)C)C1)C(=O)N1CCC[C@H](N1)C(=O)OCC(C)(C)C2` [Example A79], the EC50 in test [1] was below 5000 nM. Besides, in the test with NCI-H358 (K-Ras G12C), the IC50 was in the range of 10 to 100 nM.

For `C=CC(=O)N1CC[C@H](C(=O)N(C)[C@H](C(=O)N[C@H]2Cc3cc(O)cc(c3)-c3ccc4c(c3)c(c(-c3c(CCOC)cccc3OC)n4CC)CC(C)(C)COC(=O)[C@@H]3CCCN(N3)C2=O)C(C)C)C1` [Example A80], the EC50 in test [1] was below 5000 nM. The IC50 with NCI-H358 (K-Ras G12C) fell in the range of 100 to 1000 nM.

Consider `C=CC(=O)N1CC[C@H](C(=O)N(C)[C@H](C(=O)N[C@H]2Cc3cc(O)cc(c3)-c3ccc4c(c3)c(c(-c3cc(F)cnc3COC)n4CC)CC(C)(C)COC(=O)[C@@H]3CCCN(N3)C2=O)C(C)C)C1` [Example A82], for which, in test [1], the EC50 is below 5000 nM. For the same compound, the IC50 in the test on NCI-H358 (K-Ras G12C) fell in the range of 10 to 100 nM.

In the case of `C=CC(=O)N1CC[C@H](C(=O)N(C)[C@H](C(=O)N[C@H]2Cc3cc(O)cc(c3)-c3ccc4c(c3)c(c(-c3cncc(COC)c3)n4CC)CC(C)(C)COC(=O)[C@@H]3CCCN(N3)C2=O)C(C)C)C1` [Example A83], the EC50 in test [1] is below 5000 nM. Besides, the IC50 in the test with NCI-H358 (K-Ras G12C) was in the range of 10 to 100 nM.

Regarding `C=CC(=O)N1CC[C@H](C(=O)N(C)[C@H](C(=O)N[C@H]2Cc3cc(O)cc(c3)-c3ccc4c(c3)c(c(-c3ncccc3COC)n4CC)CC(C)(C)COC(=O)[C@@H]3CCCN(N3)C2=O)C(C)C)C1` [Example A84], the EC50 in test [1] was below 5000 nM. In the test with NCI-H358 (K-Ras G12C), the concentration for half-maximal inhibition (IC50) lay in the range of 100 to 1000 nM.

In the case of `C=CC(=O)N1CC[C@H](C(=O)N(C)[C@H](C(=O)N[C@H]2Cc3cc(O)cc(c3)-c3ccc4c(c3)c(c(-c3nccnc3COC)n4CC)CC(C)(C)COC(=O)[C@@H]3CCCN(N3)C2=O)C(C)C)C1` [Example A85], in test [1], the EC50 is below 5000 nM. Besides, in the test on NCI-H358 (K-Ras G12C), the IC50 was 100 to 1000 nM.

For the compound `C=CC(=O)N1CC[C@H](C(=O)N(C)[C@H](C(=O)N[C@H]2Cc3cc(O)cc(c3)-c3ccc4c(c3)c(c(-c3ccncc3)n4C(C)(C)C#N)CC(C)(C)COC(=O)[C@@H]3CCCN(N3)C2=O)C(C)C)C1` [Example A86], the EC50 in test [1] was below 5000 nM. For the same compound, the IC50 in the test with NCI-H358 (K-Ras G12C) was 10 to 100 nM.

Regarding `CCn1c(-c2cnccc2COC)c2c3cc(ccc31)-c1cc(O)cc(c1)C[C@H](NC(=O)[C@H](C(C)C)N(C)C(=O)[C@H]1CCN(C(=O)/C=C/CN(C)C)C1)C(=O)N1CCC[C@H](N1)C(=O)OCC(C)(C)C2` [Example A87], in test [1], the EC50 is below 5000 nM. The IC50 in the test with NCI-H358 (K-Ras G12C) lay in the range of 10 to 100 nM.

On to `C=CC(=O)N1CC[C@H](C(=O)N(C)[C@H](C(=O)N[C@H]2Cc3cc(O)cc(c3)-c3ccc4c(c3)c(c(-c3ccc(N5CCN(C)CC5)nc3)n4CC)CC(C)(C)COC(=O)[C@@H]3CCCN(N3)C2=O)C(C)C)C1` [Example A89, (2S)-N-[(8S,14S)-22-ethyl-4-hydroxy-18,18-dimethyl-21-[6-(4-methylpiperazin-1-yl)pyridin-3-yl]-9,15-dioxo-16-oxa-10,22,28-triazapentacyclo[18.5.2.1^2,^6.1^10,^14.0^23,^27]nonacosa-1(26),2,4,6(29),20,23(27),24-heptaen-8-yl]-3-methyl-2-{N-methyl-1-[(3S)-1-(prop-2-enoyl)pyrrolidin-3-yl]formamido}butanamide], for which the EC50 in test [1] is below 5000 nM. For the same compound, in the test with NCI-H358 (K-Ras G12C), the IC50 is 10 to 100 nM.

For the compound `C=CC(=O)N1CC[C@H](C(=O)N(C)[C@H](C(=O)N[C@H]2Cc3cc(O)cc(c3)-c3ccc4c(c3)c(c(-c3cnccc3COC)n4CC)CC(C)(C)COC(=O)[C@@H]3CCCN(N3)C2=O)C(C)C)C1` [Example A91], the EC50 in test [1] was below 5000 nM. The IC50 in the test with NCI-H358 (K-Ras G12C) is below 10 nM.

Regarding `C=CC(=O)N1CC[C@H](C(=O)N(C)[C@H](C(=O)N[C@H]2Cc3cc(O)cc(c3)-c3ccc4c(c3)c(c(-c3cccnc3CN(C)C)n4CC)CC(C)(C)COC(=O)[C@@H]3CCCN(N3)C2=O)C(C)C)C1` [Example A92], the EC50 in test [1] is below 5000 nM. Further, the IC50 with NCI-H358 (K-Ras G12C) was in the range of 100 to 1000 nM.

On to `C=CC(=O)N1CC[C@H](C(=O)N(C)[C@H](C(=O)N[C@H]2Cc3cc(O)cc(c3)-c3ccc4c(c3)c(c(-c3cccnc3COC)n4CC#N)CC(C)(C)COC(=O)[C@@H]3CCCN(N3)C2=O)C(C)C)C1` [Example A93], for which the EC50 in test [1] is below 5000 nM. The IC50 with NCI-H358 (K-Ras G12C) was in the range of 10 to 100 nM.

`C=CC(=O)N1CC[C@H](C(=O)N(C)[C@H](C(=O)N[C@H]2Cc3nc(cs3)-c3ccc4c(c3)c(c(-c3cccnc3COC)n4CC)CC(C)(C)COC(=O)[C@@H]3CCCN(N3)C2=O)C(C)C)C1` [Example A94]: the 50% effective concentration (EC50) in test [1] was below 5000 nM. Also, the IC50 in the test on NCI-H358 (K-Ras G12C) lay within 10 to 100 nM.

`CCn1c(-c2cccnc2COC)c2c3cc(ccc31)-c1cc(O)cc(c1)C[C@H](NC(=O)[C@H](C(C)C)N(C)C(=O)[C@H]1CCN(C(=O)C#CCN3CCOCC3)C1)C(=O)N1CCC[C@H](N1)C(=O)OCC(C)(C)C2` [Example A95, (2S)-N-[(8S,14S)-22-ethyl-4-hydroxy-21-[2-(methoxymethyl)pyridin-3-yl]-18,18-dimethyl-9,15-dioxo-16-oxa-10,22,28-triazapentacyclo[18.5.2.1^2,^6.1^10,^14.0^23,^27]nonacosa-1(26),2,4,6(29),20,23(27),24-heptaen-8-yl]-3-methyl-2-{N-methyl-1-[(3S)-1-[4-(morpholin-4-yl)but-2-ynoyl]pyrrolidin-3-yl]formamido}butanamide]: in test [1], the EC50 was below 5000 nM. For the same compound, the IC50 in the test on NCI-H358 (K-Ras G12C) was in the range of 10 to 100 nM.

With `CCn1c(-c2cccnc2COC)c2c3cc(ccc31)-c1cc(O)cc(c1)C[C@H](NC(=O)[C@H](C(C)C)N(C)C(=O)[C@H]1CCN(C(=O)C#CCN(C)C)C1)C(=O)N1CCC[C@H](N1)C(=O)OCC(C)(C)C2` [Example A96], the EC50 in test [1] was below 5000 nM. The 50% inhibitory concentration (IC50) with NCI-H358 (K-Ras G12C) is below 10 nM.

Broadly, the EC50 is the midpoint of the concentration-response curve. What is called IC50 is the concentration at which inhibition is half-maximal.

These data come from US11566007B2, “Ras inhibitors” (Revolution Medicines, Inc., priority 2019, dated 2023).
